Test: Fulvestrant aqueous solubility in the presence and absence of cyclodextrins (excess drug, shaken 24 h, filtered, HPLC)
Format: physicochemical
Conditions: for Quantity of Fulvestrant Diluted Run 2 / Average Concentration / Quantity of Fulvestrant Diluted Run 1: diluted sample; for True Fulvestrant Concentration: 22° C., 24 h
Method: The HPLC system used for the chromatographic determination of fulvestrant consisted of a Waters 600E quaternary gradient pump, a Waters 717plus WISP auto-sampler and a Waters 2487 Dual A, Absorbance detector. Separation was performed using a Phenomenex Luna C18 column (250×4.6 mm; 5 urn) (Phenomenex, Torrance, Calif.) (supplied by Separations, South Africa) and a mobile phase consisting of 50% MeCN:22.5% ddH2O :27.5% MeOH. The mobile phase was degassed and filtered prior to use. […] Sample run times were 15 minutes. The UV detector wavelength was set to 280 nm.
1 mL of each of the following aqueous solutions was prepared containing 0; 25; 50; 75 and 100 mg/mL ACD in ddHiO. Excess fulvestrant was added to each of these solutions and the samples were shaken for 24 hours on an orbital shaker at 200 rpm and at 22° C. room temperature. Excess fulvestrant was present in all samples at all times. After 24-hours, the samples were filtered through 0.45 μm syringe tip filters, diluted according to requirements and assayed by HPLC.
1 mL of each of the following aqueous solutions was prepared containing 0; 5; 7.5; 10 and 15 mg/mL BCD in ddH2O. Excess fulvestrant was added to each of these solutions and the samples were shaken for 24 hours on an orbital shaker at 200 rpm and at 22° C. room temperature. Excess fulvestrant was present in all samples at all times. After 24-hours, the samples were filtered through 0.45 μm syringe tip filters, diluted according to requirements and assayed by HPLC.
1 mL of each of the following aqueous solutions was prepared containing 0; 50; 100; 150; 200; 250; 300; 350 and 400 mg/mL MBCD in ddH2O. Excess fulvestrant was added to each of these solutions and the samples were shaken for 24 hours on an orbital shaker at 200 rpm and at 22° C. room temperature. Excess fulvestrant was present in all samples at all times. After 24-hours, the samples were filtered through 0.45 μm syringe tip filters, diluted according to requirements and assayed by HPLC.
1 mL of each of the following aqueous solutions was prepared containing 0; 50; 100; 150; 200; 250; 300; 350 and 400 mg/mL HPBCD in ddH2O. Excess fulvestrant was added to each of these solutions and the samples were shaken for 24 hours on an orbital shaker at 200 rpm and at 22° C. room temperature. Excess fulvestrant was present in all samples at all times. After 24-hours, the samples were filtered through 0.45 μm syringe tip filters, diluted according to requirements and assayed by HPLC.
1 mL of each of the following aqueous solutions was prepared containing 0; 50; 100; 150; 200; 250; 300; 350 and 400 mg/mL SBEBCD in ddH2O. Excess fulvestrant was added to each of these solutions and the samples were shaken for 24 hours on an orbital shaker at 200 rpm and at 22° C. room temperature. Excess fulvestrant was present in all samples at all times. After 24-hours, the samples were filtered through 0.45 μm syringe tip filters, diluted according to requirements and assayed by HPLC.
1 mL of each of the following aqueous solutions was prepared containing 0; 50; 100; 150; and 200 mg/mL GCD in ddHO. Excess fulvestrant was added to each of these solutions and the samples were shaken for 24 hours on an orbital shaker at 200 rpm and at 22° C. room temperature. Excess fulvestrant was present in all samples at all times. After 24-hours, the samples were filtered through 0.45 μm syringe tip filters, diluted according to requirements and assayed by HPLC.
1 mL of each of the following aqueous solutions was prepared containing 0; 50; 100; 150; 200; 250; 300; 350 and 400 mg/mL HPGCD in ddH2O. Excess fulvestrant was added to each of these solutions and the samples were shaken for 24 hours on an orbital shaker at 200 rpm and at 22° C. room temperature. Excess fulvestrant was present in all samples at all times. After 24-hours, the samples were filtered through 0.45 μm syringe tip filters, diluted according to requirements and assayed by HPLC.

Compound: C[C@]12CC[C@@H]3c4ccc(O)cc4C[C@@H](CCCCCCCCC[S+]([O-])CCCC(F)(F)C(F)(F)F)[C@H]3[C@@H]1CC[C@@H]2O (stereo partly drawn) [Fulvestrant, 7-alpha-[9-(4,4,5,5,5-pentafluoropentylsulphinyl)nonyl]estra-1,3,5-(10)-triene-3,17-beta-diol]
- Quantity of Fulvestrant Diluted Run 2 (150 mg/mL HPBCD): 93.50 µg/mL
- True Fulvestrant Concentration (150 mg/mL HPGCD in ddH2O): 0.203 mg/mL
- Average Concentration (150 mg/mL HPGCD): 220.81 µg/mL
- Quantity of Fulvestrant Diluted Run 1 (150 mg/mL HPGCD): 220.67 µg/mL
- Quantity of Fulvestrant Diluted Run 2 (150 mg/mL HPGCD): 220.94 µg/mL
- True Fulvestrant Concentration (150 mg/mL MBCD in ddH2O): 6.744 mg/mL
- Average Concentration (150 mg/mL MBCD): 67.44 µg/mL
- Quantity of Fulvestrant Diluted Run 1 (150 mg/mL MBCD): 67.40 µg/mL
- Quantity of Fulvestrant Diluted Run 2 (150 mg/mL MBCD): 67.47 µg/mL
- True Fulvestrant Concentration (150 mg/mL SBEBCD in ddH2O): 0.273 mg/mL
- Average Concentration (150 mg/mL SBEBCD): 272.92 µg/mL
- Quantity of Fulvestrant Diluted Run 1 (150 mg/mL SBEBCD): 273.01 µg/mL
- Quantity of Fulvestrant Diluted Run 2 (150 mg/mL SBEBCD): 272.83 µg/mL
- True Fulvestrant Concentration (200 mg/mL GCD in ddH2O): <0.010 mg/mL
- Average Concentration (200 mg/mL GCD): <10.00 µg/mL
- Quantity of Fulvestrant Diluted Run 1 (200 mg/mL GCD): <10.000 µg/mL
- Quantity of Fulvestrant Diluted Run 2 (200 mg/mL GCD): <10.000 µg/mL
- True Fulvestrant Concentration (200 mg/mL HPBCD in ddH2O): 1.563 mg/mL
- Average Concentration (200 mg/mL HPBCD): 99.30 µg/mL
- Quantity of Fulvestrant Diluted Run 1 (200 mg/mL HPBCD): 156.30 µg/mL
- Quantity of Fulvestrant Diluted Run 2 (200 mg/mL HPBCD): 42.30 µg/mL
- True Fulvestrant Concentration (200 mg/mL HPGCD in ddH2O): 0.300 mg/mL
- Average Concentration (200 mg/mL HPGCD): 334.71 µg/mL
- Quantity of Fulvestrant Diluted Run 1 (200 mg/mL HPGCD): 334.75 µg/mL
- Quantity of Fulvestrant Diluted Run 2 (200 mg/mL HPGCD): 334.66 µg/mL
- True Fulvestrant Concentration (200 mg/mL MBCD in ddH2O): 10.694 mg/mL
- Average Concentration (200 mg/mL MBCD): 106.94 µg/mL
- Quantity of Fulvestrant Diluted Run 1 (200 mg/mL MBCD): 106.87 µg/mL
- Quantity of Fulvestrant Diluted Run 2 (200 mg/mL MBCD): 107.01 µg/mL
- True Fulvestrant Concentration (200 mg/mL SBEBCD in ddH2O): 0.399 mg/mL
- Average Concentration (200 mg/mL SBEBCD): 398.81 µg/mL
- Quantity of Fulvestrant Diluted Run 1 (200 mg/mL SBEBCD): 398.52 µg/mL
- Quantity of Fulvestrant Diluted Run 2 (200 mg/mL SBEBCD): 399.09 µg/mL
- True Fulvestrant Concentration (250 mg/mL HPBCD in ddH2O): 2.377 mg/mL
- Average Concentration (250 mg/mL HPBCD): 118.84 µg/mL
- Quantity of Fulvestrant Diluted Run 1 (250 mg/mL HPBCD): 118.71 µg/mL
- Quantity of Fulvestrant Diluted Run 2 (250 mg/mL HPBCD): 118.97 µg/mL
- True Fulvestrant Concentration (250 mg/mL HPGCD in ddH2O): 0.215 mg/mL
- Average Concentration (250 mg/mL HPGCD): 473.84 µg/mL
- Quantity of Fulvestrant Diluted Run 1 (250 mg/mL HPGCD): 474.68 µg/mL
- Quantity of Fulvestrant Diluted Run 2 (250 mg/mL HPGCD): 472.99 µg/mL
- True Fulvestrant Concentration (250 mg/mL MBCD in ddH2O): 17.429 mg/mL
- Average Concentration (250 mg/mL MBCD): 174.29 µg/mL
- Quantity of Fulvestrant Diluted Run 1 (250 mg/mL MBCD): 174.30 µg/mL
- Quantity of Fulvestrant Diluted Run 2 (250 mg/mL MBCD): 174.28 µg/mL
- True Fulvestrant Concentration (250 mg/mL SBEBCD in ddH2O): 0.609 mg/mL
- Average Concentration (250 mg/mL SBEBCD): 304.74 µg/mL
- Quantity of Fulvestrant Diluted Run 1 (250 mg/mL SBEBCD): 304.32 µg/mL
- Quantity of Fulvestrant Diluted Run 2 (250 mg/mL SBEBCD): 305.15 µg/mL
- True Fulvestrant Concentration (300 mg/mL HPBCD in ddH2O): 3.312 mg/mL
- Average Concentration (300 mg/mL HPBCD): 165.62 µg/mL

Reference: patent US9724355B2, “Fulvestrant compositions and methods of use” (SHIMODA BIOTECH (PTY) LTD, priority 2010, dated 2017)
